Measurements: patent US7015215B2, “Pyrrolo[2,1-c][1,4] benzodiazepines compounds and process thereof” (Council of Scientific and Industrial Research, priority 2003, dated 2006)

Key:
[1] = tested on: MOLT-4; assay: NCI SRB cytotoxicity, Leukemia MOLT-4; format: cell-based, human; conditions: MOLT-4, Leukemia, 48 h
Protocol: (§1) Biological Activity: In vitro biological activity studies were carried out at National Cancer Institute (U.S.A.).
(§2) For each compound, dose response curves for each cell line were measured at a minimum of five concentrations at 10 fold dilutions. A protocol of 48 h continuous drug exposure was used, and a sulforhodamine B (SRB) protein assay was used to estimate cell viability or growth. The concentration causing 50% cell growth inhibition (GI50), total cell growth inhibition (TGI, 0% growth) and 50% cell death (LC50, −50% growth) compared with the control was calculated.

[2] = tested on: SR; assay: NCI SRB cytotoxicity, Leukemia SR; format: cell-based, human; conditions: 48 h
Protocol: as §1, §2

[3] = tested on: A549/ATCC; assay: NCI SRB cytotoxicity, Non-small-cell lung A549/ATCC; format: cell-based, human; conditions: 48 h
Protocol: as §1, §2

[4] = tested on: EKVX; assay: NCI SRB cytotoxicity, Non-small-cell lung EKVX; format: cell-based, human; conditions: 48 h
Protocol: as §1, §2

[5] = tested on: HOP-62; assay: NCI SRB cytotoxicity, Non-small-cell lung HOP-62; format: cell-based, human; conditions: HOP-62, Non-small-cell lung, 48 h
Protocol: as §1, §2

[6] = tested on: NCI-H226; assay: NCI SRB cytotoxicity, Non-small-cell lung NCI-H226; format: cell-based, human; conditions: 48 h
Protocol: as §1, §2

[7] = tested on: NCI-H322; assay: NCI SRB cytotoxicity, Non-small-cell lung NCI-H322; format: cell-based, human; conditions: 48 h
Protocol: as §1, §2

[8] = tested on: NCI-H460; assay: NCI SRB cytotoxicity, Non-small-cell lung NCI-H460; format: cell-based, human; conditions: 48 h
Protocol: as §1, §2

[9] = tested on: HCC-2998; assay: NCI SRB cytotoxicity, Colon HCC-2998; format: cell-based, human; conditions: HCC-2998, Colon, 48 h
Protocol: as §1, §2

[10] = tested on: HCT-116; assay: NCI SRB cytotoxicity, Colon HCT-116; format: cell-based, human; conditions: HCT-116, Colon, 48 h
Protocol: as §1, §2

[11] = tested on: HCT-15; assay: NCI SRB cytotoxicity, Colon HCT-15; format: cell-based, human; conditions: HCT-15, Colon, 48 h
Protocol: as §1, §2

[12] = tested on: SF-268; assay: NCI SRB cytotoxicity, CNS SF-268; format: cell-based, human; conditions: SF-268, CNS, 48 h
Protocol: as §1, §2

[13] = tested on: SNB-19; assay: NCI SRB cytotoxicity, CNS SNB-19; format: cell-based, human; conditions: SNB-19, CNS, 48 h
Protocol: as §1, §2

[14] = tested on: SNB-75; assay: NCI SRB cytotoxicity, CNS SNB-75; format: cell-based, human; conditions: SNB-75, CNS, 48 h
Protocol: as §1, §2

[15] = tested on: U251; assay: NCI SRB cytotoxicity, CNS U251; format: cell-based, human; conditions: 48 h
Protocol: as §1, §2

[16] = tested on: M14; assay: NCI SRB cytotoxicity, Melanoma M14; format: cell-based, human; conditions: 48 h
Protocol: as §1, §2

[17] = tested on: SK-MEL-28; assay: NCI SRB cytotoxicity, Melanoma SK-MEL-28; format: cell-based, human; conditions: SK-MEL-28, Melanoma, 48 h
Protocol: as §1, §2

[18] = tested on: UACC-62; assay: NCI SRB cytotoxicity, Melanoma UACC-62; format: cell-based, human; conditions: UACC-62, Melanoma, 48 h
Protocol: as §1, §2

[19] = tested on: IGROVI; assay: NCI SRB cytotoxicity, Ovarian IGROVI; format: cell-based, human; conditions: 48 h
[20] = tested on: OVCAR-3; assay: NCI SRB cytotoxicity, Ovarian OVCAR-3; format: cell-based, human; conditions: OVCAR-3, Ovarian, 48 h
Protocol: as §1, §2

[21] = tested on: OVCAR-4; assay: NCI SRB cytotoxicity, Ovarian OVCAR-4; format: cell-based, human; conditions: OVCAR-4, Ovarian, 48 h
Protocol: as §1, §2

[22] = tested on: OVCAR-5; assay: NCI SRB cytotoxicity, Ovarian OVCAR-5; format: cell-based, human; conditions: OVCAR-5, Ovarian, 48 h
Protocol: as §1, §2

[23] = tested on: 786-0; assay: NCI SRB cytotoxicity, Renal 786-0; format: cell-based, human; conditions: 786-0, Renal, 48 h
Protocol: as §1, §2

[24] = tested on: ACHN; assay: NCI SRB cytotoxicity, Renal ACHN; format: cell-based, human; conditions: 48 h
Protocol: as §1, §2

[25] = tested on: CAKI-1; assay: NCI SRB cytotoxicity, Renal CAKI-1; format: cell-based, human; conditions: CAKI-1, Renal, 48 h
Protocol: as §1, §2

[26] = tested on: SN12C; assay: NCI SRB cytotoxicity, Renal SN12C; format: cell-based, human; conditions: 48 h
Protocol: as §1, §2

[27] = tested on: TK-10; assay: NCI SRB cytotoxicity, Renal TK-10; format: cell-based, human; conditions: TK-10, Renal, 48 h
Protocol: as §1, §2

[28] = tested on: UO-31; assay: NCI SRB cytotoxicity, Renal UO-31; format: cell-based, human; conditions: UO-31, Renal, 48 h
Protocol: as §2

[29] = tested on: PC-3; assay: NCI SRB cytotoxicity, Prostate PC-3; format: cell-based, human; conditions: PC-3, Prostate, 48 h
Protocol: as §2

[30] = tested on: DU-145; assay: NCI SRB cytotoxicity, Prostate DU-145; format: cell-based, human; conditions: DU-145, Prostate, 48 h
Protocol: as §2

[31] = tested on: MCF7; assay: NCI SRB cytotoxicity, Breast MCF7; format: cell-based, human; conditions: 48 h
Protocol: as §1, §2

[32] = tested on: NCI/ADR-RES; assay: NCI SRB cytotoxicity, Breast NCI/ADR-RES; format: cell-based, human; conditions: 48 h
Protocol: as §1, §2

[33] = tested on: MDA-MB-231/ATCC; assay: NCI SRB cytotoxicity, Breast MDA-MB-231/ATCC; format: cell-based, human; conditions: 48 h
Protocol: as §1, §2

[34] = tested on: HS578T; assay: NCI SRB cytotoxicity, Breast HS578T; format: cell-based, human; conditions: 48 h
Protocol: as §1, §2

[35] = tested on: MDA-MB-435; assay: NCI SRB cytotoxicity, Breast MDA-MB-435; format: cell-based, human; conditions: MDA-MB-435, Breast, 48 h
Protocol: as §1, §2

[36] = tested on: HL-60(TB); conditions: Leukemia, 48 h, SRB
Protocol: as §1, §2

Question: `COc1cc2c(cc1OCCCCCN1CCN(CCCCCOc3cc4c(cc3OC)C(=O)N3CCC[C@H]3C=N4)CC1)N=C[C@@H]1CCCN1C2=O` [Compound VId] was tested. Which “Log GI 50” value [1] did it give?
Answer: Its value is −4.79 mol/L.

Question: And the “Log LC 50” value [1]?
Answer: The value was −4.00 mol/L.

Question: What about the “Log GI 50” value [2] of the same molecule?
Answer: Its value is −5.37 mol/L.

Question: And the “Log LC 50” value [2]?
Answer: The value was −4.00 mol/L.

Question: What about the “Log GI 50” value [3] of the same molecule?
Answer: The value was −4.66 mol/L.

Question: What about the “Log LC 50” value [3] of the same molecule?
Answer: Its value is −4.00 mol/L.

Question: And the “Log GI 50” value [4]?
Answer: Its value is −4.33 mol/L.

Question: What about the “Log LC 50” value [4] of the same molecule?
Answer: The value was −4.00 mol/L.

Question: What about the “Log GI 50” value [5] of the same molecule?
Answer: The value was −4.00 mol/L.

Question: And the “Log LC 50” value [5]?
Answer: The value was −4.00 mol/L.

Question: What about the “Log GI 50” value [6] of the same molecule?
Answer: Its value is −5.30 mol/L.

Question: And the “Log LC 50” value [6]?
Answer: The value was −4.00 mol/L.

Question: What about the “Log GI 50” value [7] of the same molecule?
Answer: Its value is −4.65 mol/L.

Question: And the “Log LC 50” value [7]?
Answer: Its value is −4.00 mol/L.

Question: And the “Log GI 50” value [8]?
Answer: Its value is −5.49 mol/L.

Question: What about the “Log LC 50” value [8] of the same molecule?
Answer: The value was −4.00 mol/L.

Question: And the “Log GI 50” value [9]?
Answer: The value was −5.69 mol/L.

Question: And the “Log LC 50” value [9]?
Answer: Its value is −4.29 mol/L.

Question: What about the “Log GI 50” value [10] of the same molecule?
Answer: The value was −4.00 mol/L.

Question: And the “Log LC 50” value [10]?
Answer: Its value is −4.00 mol/L.

Question: What about the “Log GI 50” value [11] of the same molecule?
Answer: The value was −4.25 mol/L.

Question: What about the “Log LC 50” value [11] of the same molecule?
Answer: The value was −4.00 mol/L.

Question: And the “Log GI 50” value [12]?
Answer: The value was −5.44 mol/L.

Question: What about the “Log GI 50” value [13] of the same molecule?
Answer: The value was −4.00 mol/L.

Question: And the “Log LC 50” value [13]?
Answer: The value was −4.00 mol/L.

Question: And the “Log GI 50” value [14]?
Answer: Its value is −4.51 mol/L.

Question: And the “Log LC 50” value [14]?
Answer: The value was −4.00 mol/L.

Question: And the “Log GI 50” value [15]?
Answer: The value was −5.47 mol/L.

Question: And the “Log LC 50” value [15]?
Answer: The value was −4.00 mol/L.

Question: What about the “Log GI 50” value [16] of the same molecule?
Answer: The value was −4.76 mol/L.

Question: What about the “Log GI 50” value [17] of the same molecule?
Answer: The value was −4.71 mol/L.

Question: And the “Log LC 50” value [17]?
Answer: Its value is −4.00 mol/L.

Question: And the “Log GI 50” value [18]?
Answer: Its value is −5.64 mol/L.

Question: And the “Log LC 50” value [18]?
Answer: The value was −4.00 mol/L.

Question: And the “Log GI 50” value [19]?
Answer: Its value is −5.13 mol/L.

Question: And the “Log LC 50” value [19]?
Answer: The value was −4.00 mol/L.

Question: And the “Log GI 50” value [20]?
Answer: The value was −5.32 mol/L.

Question: What about the “Log LC 50” value [20] of the same molecule?
Answer: Its value is −4.00 mol/L.

Question: And the “Log GI 50” value [21]?
Answer: The value was −5.38 mol/L.

Question: What about the “Log LC 50” value [21] of the same molecule?
Answer: The value was −4.00 mol/L.

Question: What about the “Log GI 50” value [22] of the same molecule?
Answer: Its value is −5.33 mol/L.

Question: And the “Log LC 50” value [22]?
Answer: The value was −4.00 mol/L.

Question: And the “Log GI 50” value [23]?
Answer: Its value is −5.61 mol/L.

Question: What about the “Log LC 50” value [23] of the same molecule?
Answer: Its value is −4.00 mol/L.

Question: What about the “Log GI 50” value [24] of the same molecule?
Answer: The value was −4.63 mol/L.

Question: What about the “Log LC 50” value [24] of the same molecule?
Answer: Its value is −4.00 mol/L.

Question: And the “Log GI 50” value [25]?
Answer: Its value is −5.77 mol/L.

Question: And the “Log LC 50” value [25]?
Answer: The value was −4.00 mol/L.

Question: What about the “Log GI 50” value [26] of the same molecule?
Answer: Its value is −5.66 mol/L.

Question: What about the “Log LC 50” value [26] of the same molecule?
Answer: The value was −4.00 mol/L.

Question: And the “Log LC 50” value [27]?
Answer: The value was −4.00 mol/L.

Question: What about the “Log GI 50” value [28] of the same molecule?
Answer: Its value is −4.00 mol/L.

Question: And the “Log LC 50” value [28]?
Answer: Its value is −4.00 mol/L.

Question: What about the “Log GI 50” value [29] of the same molecule?
Answer: Its value is −5.41 mol/L.

Question: What about the “Log LC 50” value [29] of the same molecule?
Answer: Its value is −4.00 mol/L.

Question: What about the “Log GI 50” value [30] of the same molecule?
Answer: Its value is −5.37 mol/L.

Question: What about the “Log LC 50” value [30] of the same molecule?
Answer: Its value is −4.00 mol/L.

Question: What about the “Log GI 50” value [31] of the same molecule?
Answer: The value was −5.69 mol/L.

Question: And the “Log LC 50” value [31]?
Answer: Its value is −4.00 mol/L.

Question: What about the “Log GI 50” value [32] of the same molecule?
Answer: Its value is −4.00 mol/L.

Question: What about the “Log LC 50” value [32] of the same molecule?
Answer: The value was −4.00 mol/L.

Question: What about the “Log GI 50” value [33] of the same molecule?
Answer: The value was −5.42 mol/L.

Question: What about the “Log LC 50” value [33] of the same molecule?
Answer: Its value is −4.00 mol/L.

Question: What about the “Log GI 50” value [34] of the same molecule?
Answer: The value was −5.12 mol/L.

Question: And the “Log LC 50” value [34]?
Answer: The value was −4.00 mol/L.

Question: And the “Log GI 50” value [35]?
Answer: Its value is −5.37 mol/L.

Question: And the “Log LC 50” value [35]?
Answer: Its value is −4.00 mol/L.

Question: What about the “Log GI 50” value [36] of the same molecule?
Answer: The value was −5.38 mol/L.

Question: What about the “Log LC 50” value [36] of the same molecule?
Answer: Its value is −4.00 mol/L.
